Results as given in patent US12679878B2, “CRF2 receptor agonists and their use in therapy” (SANOFI, priority 2020, dated 2026).
Starred links: 1 amine or outer side, 2 acyl side, 3 side chain; linkers in the order of their positions; H or OH if unused. Non-standard residues stand in square brackets, D forms with d. Residues, ends and D or L forms follow the SMILES beside them. Groups on a side chain read outwards from the residue. *: point of attachment. C16 diacid = O=C(O)CCCCCCCCCCCCCCC(=O)*; γGlu = O=C(O)[C@H](CCC(=O)[*:2])N[*:1]; Palmitoyl = CCCCCCCCCCCCCCCC(=O)*; AEEA = NCCOCCOCC(=O)O; Aib = CC(C)(N)C(=O)O

Experiments:
[1] = target: T1, CRF1R receptor (Homo sapiens, UniProt P34998); test: cAMP activity at anti-target CRF1R, CHO-K1 cell line clone 2 (Example 19.10); format: cell-based; conditions: for EC50: 0% HSA, read-out: EC50 [nM] 0% HSA; for EC50 / Emax: CRF1R CHO-K1 clone 2; for Emax: 100% = Sauvagine at 100 nM; for CRF1/CRF2 ratio: ratio of CRF1 EC50 to CRF2 EC50
T1 construct: host or cells: CHO-K1 clone 2
T1 sequence (P34998 24-415): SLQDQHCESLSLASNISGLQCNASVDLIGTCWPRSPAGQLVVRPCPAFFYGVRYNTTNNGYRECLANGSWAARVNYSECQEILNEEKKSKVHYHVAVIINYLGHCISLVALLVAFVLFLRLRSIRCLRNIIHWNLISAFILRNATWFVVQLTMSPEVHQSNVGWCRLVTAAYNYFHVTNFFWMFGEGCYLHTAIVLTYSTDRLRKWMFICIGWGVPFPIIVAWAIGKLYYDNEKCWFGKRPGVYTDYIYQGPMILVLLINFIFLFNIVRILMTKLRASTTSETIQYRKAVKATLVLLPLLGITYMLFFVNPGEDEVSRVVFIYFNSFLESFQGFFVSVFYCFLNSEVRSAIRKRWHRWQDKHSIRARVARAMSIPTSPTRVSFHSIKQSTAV
Summary of the method: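 The cAMP read-out used the same protocol as the previous assay, except that Sauvagine at 100 nM set the 100% activation control. Cells were CHO-K1 clone 2 overexpressing CRF1R, cultured in F12 medium with 10% FBS and G418 and stored frozen until use.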

[2] = target: T2, human CRF2α receptor (Homo sapiens, UniProt Q13324); test: cAMP agonism at human CRF2α receptor in TeloHEAC cells, FA modified peptides (Example 19.9); format: cell-based; conditions: 0% HSA, relative to urocortin 2
T2 construct: expressed in transfected cells; host or cells: TeloHEAC
T2 sequence (Q13324 1-411): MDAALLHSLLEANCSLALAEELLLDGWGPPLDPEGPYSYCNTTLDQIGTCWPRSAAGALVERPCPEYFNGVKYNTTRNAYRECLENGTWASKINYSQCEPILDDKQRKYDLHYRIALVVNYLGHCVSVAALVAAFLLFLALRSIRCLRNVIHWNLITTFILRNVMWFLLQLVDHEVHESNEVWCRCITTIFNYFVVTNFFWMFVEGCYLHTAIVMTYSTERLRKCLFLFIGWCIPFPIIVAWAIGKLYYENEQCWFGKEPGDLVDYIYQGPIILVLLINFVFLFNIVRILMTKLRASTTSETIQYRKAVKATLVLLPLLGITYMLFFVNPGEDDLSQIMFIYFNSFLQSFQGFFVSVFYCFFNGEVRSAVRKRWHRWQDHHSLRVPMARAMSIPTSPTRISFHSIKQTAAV
Summary of the method: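 Efficacy and EC50 are referenced to 100 nM urocortin 2 as 100%, with cAMP measured as the 665/620 nm HTRF ratio after 1 h at room temperature. Compounds (0.5 mM DMSO stock, 16 twofold dilutions) acted 30 min at 37 °C on CRF2α-expressing TeloHEAC cells, buffer containing IBMX and 0% or 0.2% HSA.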

EC50 [1]	Emax [1]	EC50 [2]	CRF1/CRF2 ratio [1]	SMILES
		0.14 nM	3	CCCCCCCCCCCCCCCC(=O)N[C@@H](CCC(=O)NCCCC[C@H](NC(=O)[C@H](CC(C)C)NC(=O)[C@H](CCCCN)NC(=O)[C@@H](NC(=O)[C@@H]1CCCN1C(=O)[C@H](NC(=O)[C@H](CC(=O)O)NC(=O)[C@H](CC(C)C)NC(=O)[C@H](CO)NC(=O)[C@H](CC(C)C)NC(=O)[C@@H](NC(=O)[C@@H](N)[C@@H](C)CC)C(C)C)C(C)C)[C@@H](C)CC)C(=O)N[C@@H](CCC(N)=O)C(=O)N[C@H](C(=O)N[C@@H](CC(C)C)C(=O)N[C@@H](CC(C)C)C(=O)N[C@@H](CCCCN)C(=O)N[C@@H](CCC(N)=O)C(=O)N[C@@H](CCC(=O)O)C(=O)N[C@@H](CCCNC(=N)N)C(=O)N[C@@H](CCC(N)=O)C(=O)N[C@@H](CCCCN)C(=O)NC(C)(C)C(=O)N[C@@H](CCC(N)=O)C(=O)N[C@@H](CCCNC(=N)N)C(=O)N[C@@H](CCC(=O)O)C(=O)N[C@@H](CCC(N)=O)C(=O)N[C@@H](C)C(=O)N[C@@H](CCC(=O)O)C(=O)N[C@@H](CCCCN)C(=O)N[C@@H](CC(N)=O)C(=O)N[C@@H](CCCCN)C(=O)N[C@@H](CCC(N)=O)C(=O)N[C@H](C(=O)N[C@@H](CC(C)C)C(=O)N[C@@H](C)C(=O)N[C@@H](CCC(N)=O)C(=O)N[C@H](C(N)=O)C(C)C)[C@@H](C)CC)[C@@H](C)CC)C(=O)O [compound 204] (H-IVLSLD[dV]PIKLK([γGlu-Palmitoyl])QILLKQERQK[Aib]QREQAEKNKQILAQV-NH2)
		0.68 nM	6	CCCCCCCCCCCCCCCC(=O)N[C@@H](CCC(=O)NCCCC[C@H](NC(=O)[C@H](CC(C)C)NC(=O)CNC(=O)[C@@H](NC(=O)[C@@H]1CCCN1C(=O)[C@H](NC(=O)[C@H](CC(=O)O)NC(=O)[C@H](CC(C)C)NC(=O)[C@H](CO)NC(=O)[C@H](CC(C)C)NC(=O)[C@@H](NC(=O)[C@@H](N)[C@@H](C)CC)C(C)C)C(C)C)[C@@H](C)CC)C(=O)N[C@@H](CCC(N)=O)C(=O)N[C@H](C(=O)N[C@@H](CC(C)C)C(=O)N[C@@H](CC(C)C)C(=O)N[C@@H](CCCCN)C(=O)N[C@@H](CCC(N)=O)C(=O)N[C@@H](CCC(=O)O)C(=O)N[C@@H](CCCNC(=N)N)C(=O)N[C@@H](CCC(N)=O)C(=O)N[C@@H](CCCCN)C(=O)N[C@@H](CCCCN)C(=O)NC(C)(C)C(=O)N[C@@H](CCCNC(=N)N)C(=O)N[C@@H](CCC(=O)O)C(=O)N[C@@H](CCC(N)=O)C(=O)N[C@@H](C)C(=O)N[C@@H](CCC(=O)O)C(=O)N[C@H](C(=O)N[C@@H](CC(N)=O)C(=O)N[C@@H](CCCCN)C(=O)N[C@@H](CCCNC(=N)N)C(=O)N[C@H](C(=O)N[C@@H](CC(C)C)C(=O)N[C@@H](CCC(=O)O)C(=O)N[C@@H](CCCNC(=N)N)C(=O)N[C@H](C(N)=O)C(C)C)[C@@H](C)CC)[C@@H](C)O)[C@@H](C)CC)C(=O)O [compound 207] (H-IVLSLD[dV]PIGLK([γGlu-Palmitoyl])QILLKQERQKK[Aib]REQAETNKRILERV-NH2; N-terminus assumed)

The remaining lines, values behind:

SMILES	EC50 [1]	Emax [1]	EC50 [2]	CRF1/CRF2 ratio [1]
CC[C@H](C)[C@H](N)C(=O)N[C@H](C(=O)N[C@@H](CC(C)C)C(=O)N[C@@H](CO)C(=O)N[C@@H](CC(C)C)C(=O)N[C@@H](CC(=O)O)C(=O)N[C@@H](C(=O)N1CCC[C@H]1C(=O)N[C@H](C(=O)N[C@@H](CCCCN)C(=O)N[C@@H](CC(C)C)C(=O)N[C@@H](CCCCNC(=O)COCCOCCNC(=O)COCCOCCNC(=O)CC[C@H](NC(=O)CC[C@H](NC(=O)CCCCCCCCCCCCCCC(=O)O)C(=O)O)C(=O)O)C(=O)N[C@@H](CCC(N)=O)C(=O)N[C@H](C(=O)N[C@@H](CC(C)C)C(=O)N[C@@H](CC(C)C)C(=O)N[C@@H](CCCCN)C(=O)N[C@@H](CCC(N)=O)C(=O)N[C@@H](CCC(=O)O)C(=O)N[C@@H](CCCNC(=N)N)C(=O)N[C@@H](CCC(N)=O)C(=O)N[C@@H](CCCCN)C(=O)N[C@@H](CCCCN)C(=O)NC(C)(C)C(=O)N[C@@H](CCCNC(=N)N)C(=O)N[C@@H](CCC(N)=O)C(=O)N[C@@H](CCCCN)C(=O)N[C@@H](C)C(=O)N[C@@H](CCC(=O)O)C(=O)N[C@@H](CCCCN)C(=O)N[C@@H](CC(N)=O)C(=O)N[C@@H](CCCCN)C(=O)N[C@@H](CCC(N)=O)C(=O)N[C@H](C(=O)N[C@@H](CC(C)C)C(=O)N[C@@H](C)C(=O)N[C@@H](CCC(N)=O)C(=O)N[C@H](C(N)=O)C(C)C)[C@@H](C)CC)[C@@H](C)CC)[C@@H](C)CC)C(C)C)C(C)C [compound 201] (H-IVLSLD[dV]PIKLK([AEEA-AEEA-γGlu-γGlu-C16 diacid])QILLKQERQKK[Aib]RQKAEKNKQILAQV-NH2; N-terminus assumed)	> 100 nM	-2.8%	4.66 nM	
CC[C@H](C)[C@H](N)C(=O)N[C@H](C(=O)N[C@@H](CC(C)C)C(=O)N[C@@H](CO)C(=O)N[C@@H](CC(C)C)C(=O)N[C@@H](CC(=O)O)C(=O)N[C@@H](C(=O)N1CCC[C@H]1C(=O)N[C@H](C(=O)NCC(=O)N[C@@H](CC(C)C)C(=O)N[C@@H](CCCCNC(=O)COCCOCCNC(=O)COCCOCCNC(=O)CC[C@H](NC(=O)CCCCCCCCCCCCCCC(=O)O)C(=O)O)C(=O)N[C@@H](CCC(N)=O)C(=O)N[C@H](C(=O)N[C@@H](CC(C)C)C(=O)N[C@@H](CC(C)C)C(=O)N[C@@H](CCCCN)C(=O)N[C@@H](CCC(N)=O)C(=O)N[C@@H](CCC(=O)O)C(=O)N[C@@H](CCCNC(=N)N)C(=O)N[C@@H](CCC(N)=O)C(=O)N[C@@H](CCCCN)C(=O)N[C@@H](CCCCN)C(=O)NC(C)(C)C(=O)N[C@@H](CCCNC(=N)N)C(=O)N[C@@H](CCC(=O)O)C(=O)N[C@@H](CCC(N)=O)C(=O)N[C@@H](C)C(=O)N[C@@H](CCC(=O)O)C(=O)N[C@H](C(=O)N[C@@H](CC(N)=O)C(=O)N[C@@H](CCCCN)C(=O)N[C@@H](CCC(N)=O)C(=O)N[C@H](C(=O)N[C@@H](CC(C)C)C(=O)N[C@@H](C)C(=O)N[C@@H](CCC(N)=O)C(=O)N[C@H](C(N)=O)C(C)C)[C@@H](C)CC)[C@@H](C)O)[C@@H](C)CC)[C@@H](C)CC)C(C)C)C(C)C [compound 202] (H-IVLSLD[dV]PIGLK([AEEA-AEEA-γGlu-C16 diacid])QILLKQERQKK[Aib]REQAETNKQILAQV-NH2; N-terminus assumed)	> 100 nM	5.4%	0.87 nM	
CC[C@H](C)[C@H](N)C(=O)N[C@H](C(=O)N[C@@H](CC(C)C)C(=O)N[C@@H](CO)C(=O)N[C@@H](CC(C)C)C(=O)N[C@@H](CC(=O)O)C(=O)N[C@@H](C(=O)N1CCC[C@H]1C(=O)N[C@H](C(=O)NCC(=O)N[C@@H](CC(C)C)C(=O)N[C@@H](CCCCNC(=O)COCCOCCNC(=O)COCCOCCNC(=O)CC[C@H](NC(=O)CC[C@H](NC(=O)CCCCCCCCCCCCCCC(=O)O)C(=O)O)C(=O)O)C(=O)N[C@@H](CCC(N)=O)C(=O)N[C@H](C(=O)N[C@@H](CC(C)C)C(=O)N[C@@H](CC(C)C)C(=O)N[C@@H](CCCCN)C(=O)N[C@@H](CCC(N)=O)C(=O)N[C@@H](CCC(=O)O)C(=O)N[C@@H](CCCNC(=N)N)C(=O)N[C@@H](CCC(N)=O)C(=O)N[C@@H](CCCCN)C(=O)N[C@@H](CCCCN)C(=O)NC(C)(C)C(=O)N[C@@H](CCCNC(=N)N)C(=O)N[C@@H](CCC(=O)O)C(=O)N[C@@H](CCC(N)=O)C(=O)N[C@@H](C)C(=O)N[C@@H](CCC(=O)O)C(=O)N[C@H](C(=O)N[C@@H](CC(N)=O)C(=O)N[C@@H](CCCCN)C(=O)N[C@@H](CCC(N)=O)C(=O)N[C@H](C(=O)N[C@@H](CC(C)C)C(=O)N[C@@H](C)C(=O)N[C@@H](CCC(N)=O)C(=O)N[C@H](C(N)=O)C(C)C)[C@@H](C)CC)[C@@H](C)O)[C@@H](C)CC)[C@@H](C)CC)C(C)C)C(C)C [compound 203] (H-IVLSLD[dV]PIGLK([AEEA-AEEA-γGlu-γGlu-C16 diacid])QILLKQERQKK[Aib]REQAETNKQILAQV-NH2; N-terminus assumed)	> 100 nM	4.7%	4.7 nM	
